From patent US20070015733A1, “Aryl Phosphate Derivatives of d4T having Activity Against Resistant HIV Strains” (Parker Hughes Institute, priority 1998, published 2007)
Where two headings read alike, the source gives them in different places.

Tests used:
Format in all cases: cell-based
[1] = test system: HIV-1 (HTLVIIIB) in TK-deficient CEM T-cells; experiment: Inhibition of HIV-1 replication in TK-deficient CEM T-cells (p24 / RT activity)
Experimental: Percent inhibition of viral replication was calculated by comparing the p24 and RT activity values from the test substance-treated infected cells with those from untreated infected cells. In parallel, the cytotoxicity of the compounds was examined using a microculture tetrazolium assay (MTA) of cell proliferation, as described.in the Zarling, Enrice, and Uckun articles Supra).
Cellular Assays of Anti-HIV Activity and Cytotoxicity. […] Percent viral inhibition was calculated by comparing the RT activity values from the test substance-treated infected cells with RT values from untreated infected cells (i.e., virus controls).

[2] = test system: HIV-1 A17-variant (Y181C+K103N mutant, NNRTI-resistant); experiment: p24 antigen assay, A17-variant strain in PBMC; conditions: Human immunodeficiency virus 1, PBMC
Text: In vitro assays of anti-HIV-1 activity.
Viruses. 20 primary clinical isolates with genotypic and/or phenotypic NRTI-resistance (isolated in the laboratory of D. Richman) and 10 clinical isolates with phenotypic stavudine (d4T) resistance (obtained through the AIDS Research and Reference Reagent Program, NIAID) were used in the current study. The HIV-1 strains HTLVIIIB (wildtype RT, NRTI-sensitive, NNRTI-sensitive), A17 (Y181 C mutant, NNRTI-resistant), A17-variant (Y181C+K103N mutant, NNRTI-resistant), and RT-MDR (M41 L, V106N, T215Y; NRTI-resistant, NNRTI-resistant) were also obtained from the AIDS Research and Reference Reagent Program, NIAID.
Antiviral susceptibility assays.

[3] = test system: Zidovudine-Sensitive Primary Clinical HIV-1 Isolates; experiment: p24 drug susceptibility assay, zidovudine-sensitive primary clinical HIV-1 isolates in PBMC; conditions: Human immunodeficiency virus 1, PBMC
Experimental: Antiviral susceptibility assays. Phenotypic drug susceptibility studies of HIV-1 isolates and strains were performed by measuring the production of the p24 gag protein in peripheral blood mononuclear cells (PBMC) from seronegative healthy volunteers in the presence of increasing concentrations of the anti-HIV agent using the quantitative Coulter HIV-1 p24 antigen ezyme immunoassay (EIA) and HIV-1 p24 Antigen Kinetic Standard (Beckman Coulter), as previously described (Uckun, 1998, Antimicrobial Agents and Chemotherapy 37(4): 835-38). Informed consent was obtained from the blood donors according to DHHS guidelines using consent forms approved by the Institutional Review Board. In brief, PBMC were cultured for 72 h in RPMI 1640 medium (Gibco) supplemented with 20% (vol/vol) heat-inactivated fetal bovine serum, 5% human interleukin-2 (Zeptometrix), 2 mM L-glutamine, 25 mM HEPES, 2 g/L NaHCO3, 100 U/ml penicillin/streptomycin (Gibco), 50 μg/ml gentamicin (Gibco), and 5 μg/ml phytohemagglutinin-P (PHA-P) (Sigma) for 24-72 hours prior to exposure to HIV at a multiplicity of infection of 0.001-0.1 during a 1-h adsorbtion period at 37±1° C. in a humidified 5-7% CO2 atmosphere. Subsequently, cells were cultured in 96-well microtiter plates (100 μl/well; 2×10^6 cells/ml, triplicate wells) in the presence of the anti-HIV agents at 6-7 different concentrations ranging from 0.0001 μM to 100 μM, and 25 μL aliquots of culture supernatants were removed from the wells on day 6 after infection for p24 EIA, as previously described (Uckun, 1998, Antimicrobial Agents and Chemotherapy, 37(4):835-38). Controls included uninfected and untreated cells (background control) and infected but untreated (virus control) cells. The p24 EIA utilizes a murine monoclonal antibody to HIV core protein used to coat microwell strips to which the antigen present in the test culture supernatant samples binds. Percent inhibition of viral replication was calculated by comparing the p24 values from the test substance-treated infected cells with p24 values from untreated infected cells (i.e., virus controls). The IC50 values were determined using the Statview statistics program (SAS Institute, Inc.). In parallel, the effects of various treatments on cell viability were also examined as previously described (Uckun, 1998, Antimicrobial Agents and Chemotherapy, 42:383-388). In brief, noninfected PBMC were treated with each compound for 5 days under identical experimental conditions. A microculture tetrazolium assay (MTA) was performed to quantitate cellular proliferation (Uckun, 1998, Antimicrobial Agents and Chemotherapy, 42:383-388).
Phenotypic drug susceptibility studies of HIV-1 isolates and strains were performed by measuring the production of the p24 gag protein in peripheral blood mononuclear cells (PBMC) from seronegative healthy volunteers in the presence of increasing concentrations of the anti-HIV agent using the quantitative Coulter HIV-1 p24 antigen enzyme immunoassay (EIA) and HIV-1 p24 Antigen Kinetic Standard (Beckman Coulter), as previously described. StatView was used in the calculation of the IC50 values from each set of triplicate wells using the linearized form of an exponential equation (lnY=lnb0+b1X; where Y=% inhibition, X=drug concentration). The inhibition constants were log10 transformed to homogenize the variances within each group. […] P-values below 0.05 were deemed significant (JMP Software, SAS).

[4] = Human immunodeficiency virus 1, CCRF-CEM, TK-deficient CEM cells, read-out: IC50 value for inhibition of RT activity
[5] = Human immunodeficiency virus 1, T-cell, TK-deficient CEM T-cells, Table 5, read-out: CEM IC50 [RT]
[6] = read-out: IC50, μM (p24), Mean ± SE, mean over 10 zidovudine-sensitive clinical isolates
[7] = read-out: IC50, μM (p24), isolate 92BR025 (C/C, Brazil), PBMC
[8] = read-out: IC50, μM (p24), isolate 92RW008 (—/A, Rawanda), PBMC
[9] = read-out: IC50, μM (p24), isolate 93BR019 (—/BF, Brazil), PBMC
[10] = read-out: IC50, μM (p24), isolate 93BR020 (F/F, Brazil), PBMC
[11] = read-out: IC50, μM (p24), isolate 93BR029 (F/B, Brazil), PBMC
[12] = read-out: IC50, μM (p24), isolate 93IN101 (—/C, India), PBMC
[13] = read-out: IC50, μM (p24), isolate HIV-1G3 (—/G, Nigeria), PBMC
[14] = read-out: IC50 range, range over 10 zidovudine-sensitive clinical isolates
[15] = primary isolate RW/92/8 (V179I), Table 14
[16] = Human immunodeficiency virus 1, CCRF-CEM, TK-deficient CEM cells, read-out: IC50 value for inhibition of p24 production
[17] = Human immunodeficiency virus 1, T-cell, TK-deficient CEM, unit not printed in Table 2 (0.556 = 556 nM), read-out: IC50 [p24]
[18] = Human immunodeficiency virus 1, T-cell, TK-deficient CEM, unit not printed in Table 2 (2.355 = 2355 nM), read-out: IC50 [RT]
[19] = read-out: IC50, μM (p24), isolate 92BR003 (B/B, Brazil), PBMC
[20] = read-out: IC50, μM (p24), isolate 92RW016 (subtype A/A, Rawanda), PBMC
[21] = read-out: IC50, μM (p24), isolate HIV-1JV1083 (—/G, Nigeria), PBMC

| Compound | IC50 [1, 4] | IC50 [1, 5] | IC50 ([2]; read-out: IC50 A17V) | IC50 [3, 6] | IC50 [3, 7] | IC50 [3, 8] | IC50 [3, 9] | IC50 [3, 10] | IC50 [3, 11] | IC50 [3, 12] | IC50 [3, 13] | IC50 [3, 14] | IC90 ([3]; read-out: IC90 mean ±SE) | IC90 ([3]; read-out: IC90 range) | IC50 [2] | IC50 [3, 15] | IC50 [1, 16] | IC50 [1, 17] | IC50 [1, 18] | IC50 [3, 19] | further results |
| --- | --- | --- | --- | --- | --- | --- | --- | --- | --- | --- | --- | --- | --- | --- | --- | --- | --- | --- | --- | --- | --- |
| Cc1cn([C@H]2C[C@H](N=[N+]=[N-])[C@@H](CO)O2)c(=O)[nH]c1=O [AZT, 3′-azido-3′-deoxythymidine] | 200 nM | 200 nM | 0.005 nM | 0.004 ± 0.001 µM | 0.004 µM | 0.002 µM | 0.002 µM | 0.002 µM | 0.007 µM | 0.001 µM | 0.01 µM | 0.001 to 0.01 µM | 50 ± 10 nM | 11 to 90 nM |  |  |  |  |  |  |  |
| Cc1ccnc2c1NC(=O)c1cccnc1N2C1CC1 [nevirapine] |  |  |  |  |  |  |  |  |  |  |  |  |  |  | 32000 ± 7000 nM | 0.1 µM |  |  |  |  |  |
| Cc1cn([C@H]2C=C[C@@H](CO)O2)c(=O)[nH]c1=O [d4T, 2′,3′-didehydro-2′,3′-dideoxythymidine] | 2360 nM | 2400 nM |  | 0.24 ± 0.07 µM | 0.4 µM | 0.2 µM | 0.2 µM | 0.2 µM | 0.8 µM | 0.1 µM | 0.1 µM | 0.1 to 0.8 µM | 6380 ± 3890 nM | 1000 to 40900 nM |  |  | 556 nM | 556 nM | 2360 nM | 0.1 µM | IC50 ([1]; Human immunodeficiency virus 1, T-cell, read-out: CEM IC50 [RT], TK-deficient CEM T-cells, Table 4): 2340 nM; IC50 [3, 20]: 0.1 µM; IC50 [3, 21]: 0.2 µM |
| COC(=O)C(C)NP(=O)(OC[C@@H]1C=C[C@H](n2cc(C)c(=O)[nH]c2=O)O1)Oc1ccc(Br)cc1 (stereo partly shown) [Compound 1c, d4T-5′-[p-bromo-phenylmethoxyalaninyl phosphate]] | 57 nM | 60 nM | 47 ± 27 nM | 0.002 ± 0.001 µM | 0.001 µM | 0.0008 µM | 0.0008 µM | 0.007 µM | 0.0008 µM | 0.0005 µM | 0.0005 µM |  |  |  | < 1 nM | 0.0008 µM | 44 nM | 44 nM | 57 nM | 0.0006 µM | IC50 [3, 20]: 0.003 µM; IC50 [3, 21]: 0.001 µM |
